The results in this text go back to US9434693B2, “Substituted pyrazoles as N-type calcium channel blockers” (Janssen Pharmaceutica NV, priority 2012, dated 2016).

Where two headings read alike, the source gives them in different places.

Assay [1] addresses N-type calcium channel (α1B (Cav2.2), β3 and α2δ subunits) in stable HEK cell line (Homo sapiens (Human), UniProt Q00975). The experiment in a line: Functional assay (FDSS calcium mobilization): antagonism of N-type calcium channel. Format: cell-based. To be noted: for inhibition at 0.33 µM: HEK293, FDSS, 0.33 μM compound; for IC50: KCl (50 mM) depolarization, six-point concentration-response. As for the experimental part:
A stable cell line (HEK parent) co-expressing the α1B (Cav2.2), β3 and α2δ subunits of the N-type calcium channel subunits was used. These cells were routinely grown as monolayers in low glucose-containing Dulbecco's Modified Eagle Medium supplemented with 10% FBS, 2 mM L-glutamine, 100 I.U./mL penicillin, 100 μg/mL streptomycin, 400 μg/mL G418 and 200 μg/mL Zeocin (split ratio=1:5). Cells were maintained in 5% CO2 at 37° C. Compounds of Formula (I) were prepared as 10 mM stocks in DMSO from neat compound, if available. Otherwise, the 5 or 10 mM DMSO stock solutions provided in-house were used.
Calcium mobilization responses to KCl depolarization were evaluated by measuring the intensity of calcium-mediated fluorescent signal in the presence of BD Calcium Assay Dye (BD Biosciences, Franklin Lakes, N.J., U.S.A.), utilizing a Functional Drug Screening System (FDSS) by Hamamatsu Corporation (Bridgewater, N.J. U.S.A.).
Twenty-four hr prior to assay, cells were seeded in clear-base poly-D-lysine-coated 384-well plates (BD Biosciences) at a density of 5,000 cells per well in culture medium and grown overnight in 5% CO2 at 37° C. On the day of assay, growth media were removed, and cells were loaded with BD calcium assay dye (BD Biosciences) for 35 min at 37° C. under 5% CO2 and then for 25 min at room temp. Utilizing the FDSS, cells were exposed to representative compounds of Formula (I) at varying concentrations, and intracellular calcium was measured for 5 min prior to the addition of 50 mM KCl for an additional 3 min of measurement.
IC50 values for representative compounds of Formula (I) were determined from six-point concentration-response experiments and represent the concentration of said compound required to inhibit 50% of the maximal response. Maximal fluorescence intensity (FI) achieved upon addition of 50 mM KCl was exported from the FDSS software and further analyzed using GraphPad Prism 3.02 (Graph Pad Software Inc., San Diego, Calif., U.S.A.). Data were normalized to the maximum average counts from quadruplicate wells for each condition in the presence of 50 mM KCl and to the minimum average counts in the presence of buffer. Theoretical curves were generated using nonlinear regression curve-fitting analysis of either sigmoidal concentration-response or sigmoidal concentration-response (variable slope), and the IC50 values with the best-fit curve determined by GraphPad Prism were reported.
A general note: Calcium assays in cells follow changes in intracellular calcium, usually with a dye or a luminescent sensor.

The target in a further assay is N-type calcium channel (Homo sapiens (Human), UniProt Q00975). The experiment in a line: Automated electrophysiology assay (QPatch-HT whole-cell patch clamp). Format: cell-based. The protocol: Cells were grown in T175 flasks to 50%-90% confluence. At the time of use, cells were enzymatically treated with Detachin (Genlantis, San Diego, Calif. USA), centrifuged, rinsed, and resuspended in 293 SFM II media (Life Technologies, Grand Island, N.Y. U.S.A.) supplemented with 25 mM HEPES (Sigma-Aldrich, St. Louis, Mo. U.S.A.) to a concentration of 2-3×10^6 cells/mL. Cells were added to the automated cell preparation station on the QPatch-HT (Sophion Biosciences, North Brunswick, N.J. U.S.A.), and following a 10- to30-min recovery period with gentle stirring, the assay protocol was initiated. During the automated cell preparation, cells were collected, centrifuged and resuspended in an extracellular (EC) solution containing 132 mM NaCl, 1.8 mM CaCl2, 5.4 mM KCl, 0.8 mM MgCl2, 10 mM glucose, and 10 mM HEPES (pH=7.4), adjusted with sucrose to approximately 315 m0sm. The QPlate was primed with an intracellular solution containing 135 mM CsCl, 10 mM EGTA, 4 MgATP, 0.3 NaGTP, and 20 mM HEPES (pH=7.2), adjusted to approximately 290 m0sm with deionized water and the EC solution. Cells were added to the prepared QPlate wells by robotic pipettes of the QPatch-HT.
Sequence of N-type calcium channel (Q00975 whole entry): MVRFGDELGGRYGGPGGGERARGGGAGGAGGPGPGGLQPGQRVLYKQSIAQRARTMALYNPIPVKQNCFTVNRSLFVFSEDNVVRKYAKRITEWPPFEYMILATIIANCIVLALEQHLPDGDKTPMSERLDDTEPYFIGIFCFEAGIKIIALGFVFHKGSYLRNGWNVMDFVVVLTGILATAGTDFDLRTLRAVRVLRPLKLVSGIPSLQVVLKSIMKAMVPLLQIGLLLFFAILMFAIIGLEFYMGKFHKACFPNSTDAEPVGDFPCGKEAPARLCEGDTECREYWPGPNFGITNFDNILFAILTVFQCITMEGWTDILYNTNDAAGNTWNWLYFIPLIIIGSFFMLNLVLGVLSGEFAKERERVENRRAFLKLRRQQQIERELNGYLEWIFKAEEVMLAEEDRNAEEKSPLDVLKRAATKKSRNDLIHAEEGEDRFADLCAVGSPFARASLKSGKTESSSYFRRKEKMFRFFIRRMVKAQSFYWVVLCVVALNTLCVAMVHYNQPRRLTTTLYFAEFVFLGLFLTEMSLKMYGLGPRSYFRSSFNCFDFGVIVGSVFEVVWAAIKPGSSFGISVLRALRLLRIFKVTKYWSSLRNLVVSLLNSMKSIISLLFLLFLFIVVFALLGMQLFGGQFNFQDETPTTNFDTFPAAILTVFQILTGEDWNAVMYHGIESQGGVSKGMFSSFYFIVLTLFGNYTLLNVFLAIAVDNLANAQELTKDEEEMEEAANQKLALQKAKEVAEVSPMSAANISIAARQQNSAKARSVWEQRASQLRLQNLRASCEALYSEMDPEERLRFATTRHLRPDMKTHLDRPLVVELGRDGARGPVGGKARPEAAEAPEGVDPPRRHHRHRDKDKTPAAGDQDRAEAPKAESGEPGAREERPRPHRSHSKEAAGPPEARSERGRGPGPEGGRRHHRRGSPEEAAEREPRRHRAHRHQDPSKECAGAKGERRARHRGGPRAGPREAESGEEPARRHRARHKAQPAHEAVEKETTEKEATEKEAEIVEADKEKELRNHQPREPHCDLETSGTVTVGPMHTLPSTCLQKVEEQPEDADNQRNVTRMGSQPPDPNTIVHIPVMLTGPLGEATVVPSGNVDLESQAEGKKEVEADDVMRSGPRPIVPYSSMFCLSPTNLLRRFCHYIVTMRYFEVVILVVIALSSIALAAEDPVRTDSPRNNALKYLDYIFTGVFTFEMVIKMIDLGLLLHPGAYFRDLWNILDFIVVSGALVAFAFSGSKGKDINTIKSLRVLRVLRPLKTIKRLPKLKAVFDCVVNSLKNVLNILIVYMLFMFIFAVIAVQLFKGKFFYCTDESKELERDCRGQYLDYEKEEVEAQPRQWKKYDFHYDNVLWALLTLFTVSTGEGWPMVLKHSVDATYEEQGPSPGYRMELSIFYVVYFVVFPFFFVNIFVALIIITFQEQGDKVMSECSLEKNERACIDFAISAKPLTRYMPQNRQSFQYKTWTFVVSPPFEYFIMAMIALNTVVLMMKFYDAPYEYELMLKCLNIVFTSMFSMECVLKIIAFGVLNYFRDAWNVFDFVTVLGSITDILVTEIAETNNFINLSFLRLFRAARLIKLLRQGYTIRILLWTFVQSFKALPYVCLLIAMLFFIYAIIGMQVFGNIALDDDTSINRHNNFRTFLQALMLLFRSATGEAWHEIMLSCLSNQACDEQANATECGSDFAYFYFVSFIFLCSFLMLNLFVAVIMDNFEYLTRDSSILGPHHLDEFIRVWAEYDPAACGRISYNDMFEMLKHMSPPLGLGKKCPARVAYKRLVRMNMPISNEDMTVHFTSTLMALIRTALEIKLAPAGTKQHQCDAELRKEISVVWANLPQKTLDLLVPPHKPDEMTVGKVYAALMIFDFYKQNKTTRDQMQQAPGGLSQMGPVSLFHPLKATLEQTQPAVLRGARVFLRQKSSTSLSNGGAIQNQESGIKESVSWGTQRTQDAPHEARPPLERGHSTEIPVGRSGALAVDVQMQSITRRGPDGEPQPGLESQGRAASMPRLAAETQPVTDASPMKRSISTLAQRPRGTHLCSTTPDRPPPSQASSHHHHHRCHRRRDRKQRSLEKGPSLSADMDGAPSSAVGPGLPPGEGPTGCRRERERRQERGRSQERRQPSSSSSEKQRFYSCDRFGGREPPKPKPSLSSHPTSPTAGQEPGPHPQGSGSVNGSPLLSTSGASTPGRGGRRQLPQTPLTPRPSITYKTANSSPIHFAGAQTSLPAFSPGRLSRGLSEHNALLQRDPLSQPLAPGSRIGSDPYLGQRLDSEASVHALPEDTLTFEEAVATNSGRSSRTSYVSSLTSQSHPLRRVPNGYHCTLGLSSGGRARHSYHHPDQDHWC
Sequence of N-type calcium channel (P54284 whole entry partner): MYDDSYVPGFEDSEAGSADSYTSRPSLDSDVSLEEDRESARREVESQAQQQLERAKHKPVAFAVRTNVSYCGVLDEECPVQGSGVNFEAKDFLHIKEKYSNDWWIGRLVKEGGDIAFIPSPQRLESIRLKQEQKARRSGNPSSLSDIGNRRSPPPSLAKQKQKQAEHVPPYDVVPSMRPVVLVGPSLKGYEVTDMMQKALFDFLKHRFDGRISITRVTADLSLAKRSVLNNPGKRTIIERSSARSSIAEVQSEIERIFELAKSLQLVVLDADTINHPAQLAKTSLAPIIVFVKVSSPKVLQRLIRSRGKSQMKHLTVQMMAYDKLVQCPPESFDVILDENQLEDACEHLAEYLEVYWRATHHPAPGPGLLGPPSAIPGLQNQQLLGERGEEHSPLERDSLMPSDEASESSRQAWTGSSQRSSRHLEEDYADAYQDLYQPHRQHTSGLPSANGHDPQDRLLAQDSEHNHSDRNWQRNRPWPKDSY
Sequence of N-type calcium channel (P54289 25-1103 partner): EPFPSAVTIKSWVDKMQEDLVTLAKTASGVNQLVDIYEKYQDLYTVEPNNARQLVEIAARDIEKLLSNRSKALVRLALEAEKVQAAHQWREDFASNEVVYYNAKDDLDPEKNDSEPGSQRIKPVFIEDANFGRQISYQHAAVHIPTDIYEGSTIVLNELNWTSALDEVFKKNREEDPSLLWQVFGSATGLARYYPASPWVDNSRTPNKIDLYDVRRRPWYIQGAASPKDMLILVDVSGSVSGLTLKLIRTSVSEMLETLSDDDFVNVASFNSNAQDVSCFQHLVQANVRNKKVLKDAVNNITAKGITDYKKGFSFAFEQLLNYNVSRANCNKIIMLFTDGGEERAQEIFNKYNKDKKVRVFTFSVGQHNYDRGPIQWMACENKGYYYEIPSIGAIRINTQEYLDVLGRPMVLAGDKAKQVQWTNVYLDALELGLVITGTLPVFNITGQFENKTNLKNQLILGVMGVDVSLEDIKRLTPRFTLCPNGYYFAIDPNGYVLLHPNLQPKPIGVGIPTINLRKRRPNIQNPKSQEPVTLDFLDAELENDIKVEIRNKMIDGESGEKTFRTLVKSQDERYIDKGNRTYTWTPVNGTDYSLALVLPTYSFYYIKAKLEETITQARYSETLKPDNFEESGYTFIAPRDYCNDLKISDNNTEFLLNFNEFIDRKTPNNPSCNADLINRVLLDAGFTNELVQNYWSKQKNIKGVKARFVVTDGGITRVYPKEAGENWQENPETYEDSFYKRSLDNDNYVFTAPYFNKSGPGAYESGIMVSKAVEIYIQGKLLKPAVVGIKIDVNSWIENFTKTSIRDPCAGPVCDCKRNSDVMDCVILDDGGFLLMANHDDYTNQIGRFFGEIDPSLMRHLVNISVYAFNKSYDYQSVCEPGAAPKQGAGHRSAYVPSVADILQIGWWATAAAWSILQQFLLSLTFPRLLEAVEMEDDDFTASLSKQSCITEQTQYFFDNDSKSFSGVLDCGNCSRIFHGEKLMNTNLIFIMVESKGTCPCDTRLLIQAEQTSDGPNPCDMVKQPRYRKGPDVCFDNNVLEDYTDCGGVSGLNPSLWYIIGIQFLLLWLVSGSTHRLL
For cells determined to be in stable whole-cell patch clamp, the EC solution was replaced with a barium (Ba)/triethylammonium (TEA) solution containing 140 mM TEA-Cl, 10 mM BaCl2, 0.8 mM MgCl2, 10 mM glucose and 10 mM HEPES (pH=7.4). High (40 mM) BaCl2 concentrations were made with adjustments to TEA-Cl (90 mM) to maintain the osmolarity. From a resting potential of −80 mV, a train of depolarizing pulses (15 pulses at 5 Hz, +20 mV) was delivered to the cell once every 30 sec for […], and the resulting currents were measured during a control period (no compound). This protocol was repeated for each subsequent addition of control buffer with or without compound (three periods total, each with four trains). The current generated in the 1st and 15th pulses of the last train of each period in the presence of each drug concentration was normalized to the current generated during the control period at the respective pulses (representing low- and high-frequency stimulation, respectively). Data from both the second and third drug application periods were analyzed for each cell. A final addition of Ba/TEA solution containing 60-100 μM CdCl2 was made to block all N-type current and to “zero” the currents for each cell. All buffer/compound additions were made using a “spitting” feature of the QPatch-HT, which added three repetitions of 5 μL solution at the beginning of each recording period.
To examine closed-state inactivation, cells were subjected to a channel-activating 50-msec depolarizing step pulse from −80 to +10 mV, followed by a 5-sec nonactivating step to voltages ranging from −130 to −60 mV in 10 mV increments and then a 50-ms step from −80 to +10 mV to assess the remaining current. Currents from the activating voltage pulse were normalized to the peak value of the test pulse following the −130 mV step and fit to a Boltzman equation to obtain the V1/2. Roscovitine (Sigma-Aldrich) was prepared as a 100 mM stock in dimethyl sulfoxide and diluted to the indicated working concentrations. […]. Compounds of Formula (I) were diluted first into dimethyl sulfoxide and then into 10% pluronic F-127 in water (Life Technologies), sonicated for 1 min and diluted into EC buffer. Vehicle controls were run in parallel in all experiments.
Unless otherwise indicated, statistics for comparing among electrophysiological results utilized a one-way analysis of variance with Fisher's least squares determination test for pair-wise comparison.
(In general: The patch-clamp technique gives a direct electrical read-out from membranes.)

Assay [2] concerns CFA-induced thermal hyperalgesia. The experiment in a line: Complete Freund's Adjuvant (CFA)-induced hyperalgesia, radiant heat. Format: in vivo, Sprague-Dawley rats. To be noted: FIG. 1, numbers not given.
The mark [3] stands for this setting: high-frequency stimulation (15th pulse of train, 5 Hz), read-out: QPatch at High Frequency % Inhibition at 0.1 μM.
Where [4] appears, read: low-frequency stimulation (1st pulse of train), read-out: QPatch at Low Frequency % Inhibition at 0.1 μM.

Sequence of N-type calcium channel (α1B (Cav2.2), β3 and α2δ subunits) in stable HEK cell line (Q00975 whole entry): as the sequence (Q00975 whole entry) above
Sequence of N-type calcium channel (α1B (Cav2.2), β3 and α2δ subunits) in stable HEK cell line (P54284 whole entry partner): as the sequence (P54284 whole entry partner) above
Sequence of N-type calcium channel (α1B (Cav2.2), β3 and α2δ subunits) in stable HEK cell line (P54289 25-1103 partner): as the sequence (P54289 25-1103 partner) above

Regarding `COc1ccccc1-n1nc(OC2CC(C)(C)OC(C)(C)C2)cc1-c1ccc(Cl)cc1` [Compound 23, 5-(4-chlorophenyl)-1-(2-methoxyphenyl)-3-((2,2,6,6-tetramethyltetrahydro-2H-pyran-4-yl)oxy)-1H-pyrazole], in assay [1], the inhibition at 0.33 µM worked out at 96% and the IC50 turned out to be 0.0076 µM. The inhibition at 0.1 µM at N-type calcium channel (setting [3]) amounted to 37%. The inhibition at 0.1 µM on N-type calcium channel (setting [4]) turned out to be 11%. The “effect in rat CFA radiant heat model of inflammatory pain” value in assay [2] is reported as “antihyperalgesic effect”.

Take `COc1ccccc1-n1nc(OC2CN(C(=O)N(C)OC)C2)cc1-c1ccc(Cl)cc1` [Compound 29, 3-{[5-(4-Chlorophenyl)-1-(2-methoxyphenyl)-1H-pyrazol-3-yl]oxy}-N-methoxy-N-methylazetidine-1-carboxamide]: in assay [1], the inhibition at 0.33 µM turned out to be 94% and the IC50 came to 0.014 µM. Also, the inhibition at 0.1 µM at N-type calcium channel (setting [3]) amounted to 1%. At N-type calcium channel (setting [4]), the inhibition at 0.1 µM was -24%.

For `COc1ccccc1-n1nc(OC2CCN(S(=O)(=O)C(C)C)CC2)cc1-c1ccc(Cl)cc1` [Compound 21, 4-{[5-(4-Chlorophenyl)-1-(2-methoxyphenyl)-1H-pyrazol-3-yl]oxy}-1-[(1-methylethyl)sulfonyl]piperidine], in assay [1], the inhibition at 0.33 µM stood at 95%. Also, the IC50 in assay [1] worked out at 0.036 µM. Further, the inhibition at 0.1 µM on N-type calcium channel (setting [3]) came out at 23%; on N-type calcium channel (setting [4]), 15%.

A word on the inhibition: it is the relative decrease from the control value, in per cent. What is called IC50 is the concentration that gives 50% inhibition.
